Reference: ChEMBL document CHEMBL6096733, “Structure-Based Virtual Screening Identifies 2-Arylthiazole-4-Carboxylic Acids as a Novel Class of Nanomolar Affinity Ligands for the CaMKIIα Hub Domain” (J Med Chem, 2025)
Each block holds one molecule with its values, some of them ahead of it.

Key:
[1] = biological target: T1, Calcium/calmodulin-dependent protein kinase type II subunit alpha (Rattus norvegicus, UniProt P11275); assay: Inhibition of […] binding to CaMKIIalpha in rat brain cortical membrane assessed as inhibition constant incubated for 1 hrs by TopCount NXT microplate scintillation counter analysis; format: cell membranes, Cortex
T1 sequence (P11275 whole entry, the tested form may be a part): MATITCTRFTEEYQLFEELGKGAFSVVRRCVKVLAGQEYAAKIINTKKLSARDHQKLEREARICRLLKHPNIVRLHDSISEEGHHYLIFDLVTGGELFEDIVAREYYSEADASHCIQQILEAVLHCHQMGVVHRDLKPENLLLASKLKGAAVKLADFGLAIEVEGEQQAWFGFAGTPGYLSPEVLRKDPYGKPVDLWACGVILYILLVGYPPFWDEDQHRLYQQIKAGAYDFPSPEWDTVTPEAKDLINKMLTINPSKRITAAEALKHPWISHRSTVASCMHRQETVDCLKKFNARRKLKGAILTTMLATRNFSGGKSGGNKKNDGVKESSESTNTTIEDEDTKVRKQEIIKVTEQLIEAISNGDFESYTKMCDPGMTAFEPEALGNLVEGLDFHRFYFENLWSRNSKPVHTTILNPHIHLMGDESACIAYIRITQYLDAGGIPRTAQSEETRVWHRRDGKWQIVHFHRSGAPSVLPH

[2] = biological target: T2, Calcium/calmodulin-dependent protein kinase type II subunit alpha (Homo sapiens, UniProt Q9UQM7); assay: Induction of thermal stabilization of recombinant wildtype human CAMKIIalpha hub domain (345 to 475 residues) extracted from Escherichia coli BL21 (DE3) cells by differential scanning fluorimetric analysis; settings: dose 0.625-320 µM
T2 sequence (Q9UQM7 whole entry, the tested form may be a part): as the sequence (P11275 whole entry, the tested form may be a part) above, with N324S counted along it

[3] = biological target: T2, Calcium/calmodulin-dependent protein kinase type II subunit alpha; assay: Induction of thermal stabilization of recombinant wildtype human CAMKIIalpha hub domain (345 to 475 residues) extracted from Escherichia coli BL21 (DE3) cells assessed as change in melting temperature at 0.625 to 320 microM by differential scanning fluorimetric analysis; settings: dose 0.625-320 µM
[4] = biological target: T1, Calcium/calmodulin-dependent protein kinase type II subunit alpha; assay: Inhibition of [3H]NCS-382 binding to CaMKIIalpha in rat brain cortical membrane assessed as inhibition constant incubated for 1 hrs by TopCount NXT microplate scintillation counter analysis; format: cell membranes, Cortex
[5] = Metabolic stability in pooled CD-1 mouse liver microsomes assessed as parent compound remaining at 10 uM measured after 30 mins in presence of NADPH regeneration system by LC-MS analysis; format: ADME, Microsome; settings: read-out: Stability
[6] = Ratio of unbound brain to plasma drug concentration in mouse at 10 mg/kg, po measured after 0.5 hrs by LC-MS/MS analysis; format: ADME, organism-based; settings: brain and plasma, read-out: K(p,uu,brain)
[7] = Metabolic stability in pooled human plasma assessed as parent compound remaining at 20 uM measured after 60 mins by LC-MS analysis; format: ADME, cell-free; settings: read-out: Stability
[8] = Metabolic stability in pooled human plasma assessed as parent compound remaining at 20 uM measured after 30 mins by LC-MS analysis; format: ADME, cell-free; settings: read-out: Stability
[9] = Drug concentration in mouse brain at 10 mg/kg, po measured after 0.5 hrs by LC-MS/MS analysis; format: ADME, organism-based; settings: read-out: Ct
[10] = Metabolic stability in pooled human plasma assessed as parent compound remaining at 20 uM measured after 120 mins by LC-MS analysis; format: ADME, cell-free; settings: read-out: Stability
[11] = Prodrug conversion in mouse assessed as ratio of 2-(2,6-dichlorophenyl)thiazole-4-carboxylic acid concentration in brain to plasma at 10 mg/kg, po measured after 0.5 hrs by LC-MS/MS analysis; format: ADME, organism-based
[12] = Prodrug conversion in mouse plasma assessed as 2-(2,6-dichlorophenyl)thiazole-4-carboxylic acid concentration at 10 mg/kg, po measured after 0.5 hrs by LC-MS/MS analysis; format: ADME, organism-based; settings: in vivo
[13] = Ratio of drug concentration in mouse brain to plasma at 10 mg/kg, po measured after 0.5 hrs by LC-MS/MS analysis; format: ADME, organism-based; settings: brain and plasma, read-out: BPR
[14] = Metabolic stability in pooled CD-1 mouse liver microsomes assessed as parent compound remaining at 10 uM measured after 60 mins in presence of NADPH regeneration system by LC-MS analysis; format: ADME, Microsome; settings: read-out: Stability
[15] = Drug concentration in mouse plasma at 10 mg/kg, po measured after 0.5 hrs by LC-MS/MS analysis; format: ADME, organism-based
[16] = Prodrug conversion in mouse assessed as ratio of unbound 2-(2,6-dichlorophenyl)thiazole-4-carboxylic acid concentration in brain to plasma at 10 mg/kg, po measured after 0.5 hrs by LC-MS/MS analysis; format: ADME, organism-based
[17] = Chemical stability of compound in phosphate buffer solution at pH 7.4; format: physicochemical
[18] = Metabolic stability in pooled CD-1 mouse liver microsomes assessed as parent compound remaining at 10 uM measured immediately in presence of NADPH regeneration system by LC-MS analysis; format: ADME, Microsome; settings: read-out: Stability
[19] = Metabolic stability in pooled human plasma assessed as parent compound remaining at 20 uM measured immediately by LC-MS analysis; format: ADME, cell-free; settings: read-out: Stability
[20] = Metabolic stability in pooled CD-1 mouse liver microsomes assessed as parent compound remaining at 10 uM measured after 15 mins in presence of NADPH regeneration system by LC-MS analysis; format: ADME, Microsome; settings: read-out: Stability
[21] = Prodrug conversion in mouse brain assessed as 2-(2,6-dichlorophenyl)thiazole-4-carboxylic acid concentration at 10 mg/kg, po measured after 0.5 hrs by LC-MS/MS analysis; format: ADME, organism-based; settings: in vivo

Ki ([1]; read-out: Ki): 5 µM
Compound: O=C(O)c1csc(-c2ccc(-c3ccccc3)cc2)n1

Ki ([1]; read-out: Ki): 9.9 µM
Compound: O=C(O)Cc1csc(-c2cccc3ccccc23)n1

Activity [2]: Dose-dependent-effect | ΔTm [3]: 22 °C | Ki ([1]; read-out: Ki): 0.05 µM
Compound: O=C(O)c1csc(-c2c(Br)cccc2Br)n1

Ki ([1]; read-out: Ki): 2.7 µM
Compound: O=C(O)c1csc(-c2cccc(O)c2)n1

Ki ([1]; read-out: Ki): 9.9 µM
Compound: COc1cccc(-c2nc(C(=O)O)cs2)c1

Ki ([1]; read-out: Ki): 60.2 µM
Compound: O=C(O)c1csc(-c2ccncc2)n1

Ki ([1]; read-out: Ki): > 10 µM
Compound: O=C(O)Cc1csc(-c2c(Cl)cccc2Cl)n1

Ki ([1]; read-out: Ki): 0.19 µM
Compound: Clc1cccc(Cl)c1-c1nc(-c2nnn[nH]2)cs1

Ki ([4]; read-out: Ki): 3.1 µM
Compound: COc1ccccc1-c1nc(C(=O)O)cs1

Ki ([1]; read-out: Ki): 1.4 µM
Compound: O=C(O)c1csc(Cc2ccccc2)n1

Ki ([1]; read-out: Ki): 1 µM
Compound: O=C(O)c1csc(-c2ccccc2Cl)n1

Ki ([1]; read-out: Ki): 0.9 µM
Compound: Cc1ccccc1-c1nc(C(=O)O)cs1

Ki ([1]; read-out: Ki): 0.71 µM
Compound: O=C(O)c1csc(-c2c(F)cccc2F)n1

Ki ([4]; read-out: Ki): 0.18 µM | Ki ([4]; read-out: pKi (converted)): 0.158 µM
Compound: O=C(O)c1csc(-c2ccccc2Br)n1

Ki ([1]; read-out: Ki): > 10 µM
Compound: O=C(O)c1csc(-c2c(C(F)(F)F)cccc2C(F)(F)F)n1

Ki ([1]; read-out: Ki): 2.3 µM | Ki ([1]; read-out: pKi (converted)): 12.6 µM
Compound: Cc1ccc(-c2nc(C(=O)O)cs2)cc1

Ki ([1]; read-out: Ki): 3.2 µM
Compound: O=C(O)c1csc(/C=C/c2ccccc2)n1

Ki ([4]; read-out: Ki): 0.16 µM
Compound: O=C(O)c1csc(-c2ccccc2I)n1

Ki ([1]; read-out: Ki): > 100 µM
Compound: OC1(c2nc(-c3c(Cl)cccc3Cl)cs2)COC1

Ki ([1]; read-out: Ki): 2.6 µM
Compound: O=C(O)c1csc(CCc2ccccc2)n1

remaining at 0.5 h, 10 µM [5]: 53% | Kp uu at 0.5 h [6]: 0.49 | remaining at 1 h, 20 µM [7]: 74% | remaining at 0.5 h, 20 µM [8]: 78% | concentration at 0.5 h [9]: 627 ng/g | remaining at 2 h, 20 µM [10]: 70% | BPR [11]: 0.03 | Cp [12]: 2154 ng/mL | Kp at 0.5 h [13]: 4.7 | remaining at 1 h, 10 µM [14]: 45% | concentration at 0.5 h [15]: 137 ng/mL | K(p,uu,brain) [16]: 0.13 | Stability [17]: Unstable | remaining at 0 min, 10 µM [18]: 100% | remaining at 0 min, 20 µM [19]: 100% | remaining at 0.25 h, 10 µM [20]: 70% | Ct [21]: 54 ng/g | Ki ([1]; read-out: Ki): 56.4 µM
Compound: CC(C)(C)OC(=O)c1csc(-c2c(Cl)cccc2Cl)n1

Ki ([1]; read-out: Ki): 12.6 µM
Compound: O=C(O)c1csc(-c2ccc(O)cc2)n1
